Assay results published in patent publication US20250311727A1, “SUBSTITUTED 2-AMINOAZINES AND SALTS THEREOF, AND USE THEREOF AS HERBICIDAL ACTIVE SUBSTANCES” (BAYER AKTIENGESELLSCHAFT, priority 2022, published 2025).

Legend:
Type in all cases: in vivo
Amaranthus retroflexus [1] = assay: Post-emergence herbicidal efficacy at 80 g/ha, AMARE; conditions: rated visually after about 3 weeks vs untreated controls, 100% = plants have died
Excerpt: (§1) Unwanted plants/weeds: • ABUTH: Abutilon theophrasti • ALOMY: Alopecurus myosuroides • AMARE: Amaranthus retroflexus • DIGSA: Digitaria sanguinalis • ECHCG: Echinochloa crus-galli • KCHSC: Kochia scoparia • LOLRI: Lolium rigidum • MATIN: Matricaria inodora • POAAN: Poa annua • POLCO: Polygonum convolvulus • SETVI: Setaria viridis • STEME: Stellaria media • VERPE: Veronica persica • VIOTR: Viola tricolor A. Post-Emergence Herbicidal Efficacy at 320 g/ha
(§2) Seeds of monocotyledonous and dicotyledonous weeds and crop plants were placed in sandy loam in plastic or organic planting pots, covered with soil and cultivated in a greenhouse under controlled growth conditions. 2 to 3 weeks after sowing, the test plants were treated at the one-leaf stage. The compounds of the invention, formulated in the form of wettable powders (WP) or as emulsion concentrates (EC), were then sprayed onto the green parts of the plants as aqueous suspension or emulsion with addition of 0.5% additive at a water application rate of 600 l/ha (converted). After the test plants had been kept in the greenhouse under optimum growth conditions for about 3 weeks, the activity of the preparations was rated visually in comparison to untreated controls. For example, 100% activity=the plants have died, 0% activity=like control plants.
(§3) Tables B1 to B11 below show the effects of selected compounds of the general formula (I) according to Table 1 on various harmful plants and an application rate corresponding to 80 g/ha, which were obtained by the experimental procedure mentioned above.

Echinochloa crus-galli [2] = assay: Post-emergence herbicidal efficacy at 80 g/ha, ECHCG; conditions: rated visually after about 3 weeks vs untreated controls, 100% = plants have died
Excerpt: as §1, §2, §3

Veronica persica [3] = assay: Post-emergence herbicidal efficacy at 80 g/ha, VERPE; conditions: rated visually after about 3 weeks vs untreated controls, 100% = plants have died
Excerpt: as §1, §2, §3

Viola tricolor [4] = assay: Post-emergence herbicidal efficacy at 80 g/ha, VIOTR; conditions: rated visually after about 3 weeks vs untreated controls, 100% = plants have died
Excerpt: as §1, §2, §3

Abutilon theophrasti [5] = assay: Pre-emergence herbicide efficacy at 80 g/ha, ABUTH; conditions: scored visually after about 3 weeks vs untreated controls, 100% = plants have died
Excerpt: as §1
(§4) Seeds of monocotyledonous and dicotyledonous weed plants and crop plants were placed in plastic or organic planting pots and covered with soil. The compounds of the invention, formulated in the form of wettable powders (WP) or as emulsion concentrates (EC), were then applied to the surface of the covering soil as aqueous suspension or emulsion with addition of 0.5% additive at a water application rate equivalent to 600 l/ha. After the treatment, the pots were placed in a greenhouse and kept under good growth conditions for the test plants. After about 3 weeks, the efficacy of the preparations was scored visually in comparison with untreated controls as percentages. For example, 100% activity=the plants have died, 0% activity=like control plants.
(§5) Tables D1 to D12 below show the effects of selected compounds of the general formula (I) according to Table 1 on various harmful plants and an application rate corresponding to 80 g/ha, which were obtained by the experimental procedure mentioned above.

Amaranthus retroflexus [6] = assay: Pre-emergence herbicide efficacy at 80 g/ha, AMARE; conditions: scored visually after about 3 weeks vs untreated controls, 100% = plants have died
Excerpt: as §1, §4, §5

Digitaria sanguinalis [7] = assay: Pre-emergence herbicide efficacy at 80 g/ha, DIGSA; conditions: scored visually after about 3 weeks vs untreated controls, 100% = plants have died
Excerpt: as §1, §4, §5

Echinochloa crus-galli [8] = assay: Pre-emergence herbicide efficacy at 80 g/ha, ECHCG; conditions: scored visually after about 3 weeks vs untreated controls, 100% = plants have died
Excerpt: as §1, §4, §5

Kochia scoparia = assay: Pre-emergence herbicide efficacy at 80 g/ha, KCHSC; conditions: scored visually after about 3 weeks vs untreated controls, 100% = plants have died
Excerpt: as §1, §4, §5

Matricaria inodora = assay: Pre-emergence herbicide efficacy at 80 g/ha, MATIN; conditions: scored visually after about 3 weeks vs untreated controls, 100% = plants have died
Excerpt: as §1, §4, §5

Polygonum convolvulus = assay: Pre-emergence herbicide efficacy at 80 g/ha, POLCO; conditions: scored visually after about 3 weeks vs untreated controls, 100% = plants have died
Excerpt: as §1, §4, §5

Veronica persica [9] = assay: Pre-emergence herbicide efficacy at 80 g/ha, VERPE
Excerpt: as §1, §4, §5

Viola tricolor [10] = assay: Pre-emergence herbicide efficacy at 80 g/ha, VIOTR
Excerpt: as §1, §4, §5

Abutilon theophrasti [11] = assay: Post-emergence herbicidal efficacy at 320 g/ha, ABUTH; conditions: rated visually after about 3 weeks vs untreated controls, 100% = plants have died
Excerpt: as §1
(§6) Seeds of mono- and dicotyledonous weed plants were placed in plastic pots in sandy loam soil (doubly sown with in each case one species of mono- or dicotyledonous weed plants per pot), covered with soil and cultivated in a greenhouse under controlled growth conditions. 2 to 3 weeks after sowing, the test plants were treated at the one-leaf stage. The compounds of the invention, formulated in the form of wettable powders (WP) or as emulsion concentrates (EC), were applied to the green parts of the plants as aqueous suspension or emulsion with addition of 0.5% additive at a water application rate equivalent to 600 litres per hectare. After the test plants had been kept in the greenhouse under optimum growth conditions for about 3 weeks, the activity of the preparations was rated visually in comparison to untreated controls.
(§7) For example, 100% activity=the plants have died, 0% activity=like control plants.
(§8) Tables A1 to A10 below show the effects of selected compounds of the general formula (I) according to Table 1 on various harmful plants and at an application rate corresponding to 320 g/ha, which were obtained by the trial procedure specified above.

Amaranthus retroflexus [12] = assay: Post-emergence herbicidal efficacy at 320 g/ha, AMARE; conditions: rated visually after about 3 weeks vs untreated controls, 100% = plants have died
In short: (§9)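 Visual rating about 3 weeks after treatment, scored against untreated plants on a scale from 0% (no effect) to 100% (dead). Application was foliar, as aqueous WP or EC suspension or emulsion with 0.5% additive at 600 L/ha, on one-leaf-stage greenhouse plants 2–3 weeks old, grown in sandy loam.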

Digitaria sanguinalis [13] = assay: Post-emergence herbicidal efficacy at 320 g/ha, DIGSA; conditions: rated visually after about 3 weeks vs untreated controls, 100% = plants have died
Excerpt: as §1, §6, §7, §8

Echinochloa crus-galli [14] = assay: Post-emergence herbicidal efficacy at 320 g/ha, ECHCG; conditions: rated visually after about 3 weeks vs untreated controls, 100% = plants have died
Excerpt: as §1, §6, §7, §8

Setaria viridis [15] = assay: Post-emergence herbicidal efficacy at 320 g/ha, SETVI; conditions: rated visually after about 3 weeks vs untreated controls, 100% = plants have died
Excerpt: as §1, §6, §7, §8

Stellaria media [16] = assay: Post-emergence herbicidal efficacy at 320 g/ha, STEME; conditions: rated visually after about 3 weeks vs untreated controls, 100% = plants have died
In short: as §9

Veronica persica [17] = assay: Post-emergence herbicidal efficacy at 320 g/ha, VERPE; conditions: rated visually after about 3 weeks vs untreated controls, 100% = plants have died
In short: as §9

Amaranthus retroflexus [18] = assay: Pre-emergence herbicide efficacy at 320 g/ha, AMARE; conditions: scored visually after about 3 weeks vs untreated controls, 100% = plants have died
In short: (§10)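 Weed seeds were sown in sandy loam, covered with soil, and the soil surface was sprayed with WP- or EC-formulated compound as aqueous suspension/emulsion plus 0.5% additive at 600 L/ha water. Pots stood in a greenhouse; about 3 weeks later efficacy was scored visually as % versus untreated controls (100% = plants dead, 0% = like control).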

Digitaria sanguinalis [19] = assay: Pre-emergence herbicide efficacy at 320 g/ha, DIGSA; conditions: scored visually after about 3 weeks vs untreated controls, 100% = plants have died
Excerpt: as §1
(§11) Seeds of mono- and dicotyledonous weed plants were placed in plastic pots in sandy loam soil (doubly sown with one species each of mono- or dicotyledonous weed plants per pot) and covered with soil. The compounds of the invention, formulated in the form of wettable powders (WP) or as emulsion concentrates (EC), were then applied to the surface of the covering soil as aqueous suspension or emulsion with addition of 0.5% additive at a water application rate of 600 litres per hectare (converted). After the treatment, the pots were placed in a greenhouse and kept under good growth conditions for the test plants. After about 3 weeks, the efficacy of the preparations was scored visually in comparison with untreated controls as percentages.
as §7
(§12) Tables C1 to C12 below show the effects of selected compounds of the general formula (I) according to Table 1 on various harmful plants and at an application rate corresponding to 320 g/ha, which were obtained by the trial procedure specified above.

Echinochloa crus-galli [20] = assay: Pre-emergence herbicide efficacy at 320 g/ha, ECHCG; conditions: scored visually after about 3 weeks vs untreated controls, 100% = plants have died
Excerpt: as §1, §11, §7, §12

Poa annua = assay: Pre-emergence herbicide efficacy at 320 g/ha, POAAN; conditions: scored visually after about 3 weeks vs untreated controls, 100% = plants have died
Excerpt: as §1, §11, §7, §12

Setaria viridis [21] = assay: Pre-emergence herbicide efficacy at 320 g/ha, SETVI; conditions: scored visually after about 3 weeks vs untreated controls, 100% = plants have died
In short: as §10

Stellaria media [22] = assay: Pre-emergence herbicide efficacy at 320 g/ha, STEME; conditions: scored visually after about 3 weeks vs untreated controls, 100% = plants have died
Excerpt: as §1, §11, §7, §12

Veronica persica [23] = assay: Pre-emergence herbicide efficacy at 320 g/ha, VERPE; conditions: scored visually after about 3 weeks vs untreated controls, 100% = plants have died
Excerpt: as §1, §11, §7, §12

With Cc1cnc(Nc2cccc(C#N)c2-n2cc(C(F)(F)F)cn2)nc1 [Example 1-39] the “Post-emergence efficacy at 80 g/ha against AMARE in %” value (Amaranthus retroflexus [1]) was 80%, the “Post-emergence efficacy at 80 g/ha against ECHCG in %” value (Echinochloa crus-galli [2]) was 80% and the “Post-emergence efficacy at 80 g/ha against VERPE in %” value (Veronica persica [3]) was 90%. The “Post-emergence efficacy at 80 g/ha against VIOTR in %” value (Viola tricolor [4]) was 80%, the “Pre-emergence efficacy at 80 g/ha against ABUTH in %” value (Abutilon theophrasti [5]) was 100% and the “Pre-emergence efficacy at 80 g/ha against AMARE in %” value (Amaranthus retroflexus [6]) was 100%. The “Pre-emergence efficacy at 80 g/ha against DIGSA in %” value (Digitaria sanguinalis [7]) was 100%, the “Pre-emergence efficacy at 80 g/ha against ECHCG in %” value (Echinochloa crus-galli [8]) was 100% and the “Pre-emergence efficacy at 80 g/ha against KCHSC in %” value (Kochia scoparia) was 90%. For the same molecule, the “Pre-emergence efficacy at 80 g/ha against MATIN in %” value (Matricaria inodora) was 100%, the “Pre-emergence efficacy at 80 g/ha against POLCO in %” value (Polygonum convolvulus) was 90% and the “Pre-emergence efficacy against VERPE” value (Veronica persica [9]) was 90%. For the same molecule, the “Pre-emergence efficacy against VIOTR” value (Viola tricolor [10]) was 100%.
For Fc1cccc(Nc2ncc(Cl)cn2)c1-n1cc(C(F)(F)F)cn1 [Example 1-47], the “Post-emergence efficacy at 320 g/ha against ABUTH in %” value (Abutilon theophrasti [11]) was 90%, the “Post-emergence efficacy at 320 g/ha against AMARE in %” value (Amaranthus retroflexus [12]) was 90% and the “Post-emergence efficacy at 320 g/ha against DIGSA in %” value (Digitaria sanguinalis [13]) was 90%. For the same molecule, the “Post-emergence efficacy at 320 g/ha against ECHCG in %” value (Echinochloa crus-galli [14]) was 90%, the “Post-emergence efficacy at 320 g/ha against SETVI in %” value (Setaria viridis [15]) was 90% and the “Post-emergence efficacy at 320 g/ha against STEME in %” value (Stellaria media [16]) was 90%. The “Post-emergence efficacy at 320 g/ha against VERPE in %” value (Veronica persica [17]) was 90%, the “Pre-emergence efficacy at 320 g/ha against AMARE in %” value (Amaranthus retroflexus [18]) was 100% and the “Pre-emergence efficacy at 320 g/ha against DIGSA in %” value (Digitaria sanguinalis [19]) was 90%. For the same molecule, the “Pre-emergence efficacy at 320 g/ha against ECHCG in %” value (Echinochloa crus-galli [20]) was 100%, the “Pre-emergence efficacy at 320 g/ha against POAAN in %” value (Poa annua) was 100% and the “Pre-emergence efficacy at 320 g/ha against SETVI in %” value (Setaria viridis [21]) was 100%. The “Pre-emergence efficacy at 320 g/ha against STEME in %” value (Stellaria media [22]) was 90% and the “Pre-emergence efficacy at 320 g/ha against VERPE in %” value (Veronica persica [23]) was 100%.
